Target: T1, 5-lipoxygenase (5-LO) (Homo sapiens, UniProt P09917)
T1 construct: gene ALOX5
T1 sequence (P09917 1-674): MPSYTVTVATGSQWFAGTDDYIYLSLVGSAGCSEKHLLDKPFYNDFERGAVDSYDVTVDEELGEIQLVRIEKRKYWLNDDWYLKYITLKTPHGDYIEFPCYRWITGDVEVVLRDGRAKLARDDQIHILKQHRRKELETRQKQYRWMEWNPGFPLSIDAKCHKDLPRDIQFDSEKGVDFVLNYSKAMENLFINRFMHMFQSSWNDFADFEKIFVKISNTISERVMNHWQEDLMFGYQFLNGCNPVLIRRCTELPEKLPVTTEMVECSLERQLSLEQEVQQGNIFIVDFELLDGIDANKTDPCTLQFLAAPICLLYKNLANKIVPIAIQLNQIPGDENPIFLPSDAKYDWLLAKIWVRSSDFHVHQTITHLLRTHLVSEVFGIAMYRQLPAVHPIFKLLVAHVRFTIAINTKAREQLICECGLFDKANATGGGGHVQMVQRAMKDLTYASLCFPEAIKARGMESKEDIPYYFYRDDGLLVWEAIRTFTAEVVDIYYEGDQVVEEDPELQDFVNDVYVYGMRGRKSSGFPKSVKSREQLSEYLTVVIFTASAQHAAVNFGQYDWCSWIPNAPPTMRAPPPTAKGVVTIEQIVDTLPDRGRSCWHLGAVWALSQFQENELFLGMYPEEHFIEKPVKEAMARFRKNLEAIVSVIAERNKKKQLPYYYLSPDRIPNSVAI
Assay: cell-free 5-LO activity assay in lysate supernatant of HEK293 cells stably transfected with 5-LO, RP-HPLC of products
Format: biochemical

| Structure (SMILES) | IC50 [nM] |
| --- | --- |
| O=C(/C=C/c1ccc(O)c(O)c1)NCCc1ccccc1 [compound 9] | 2380 |
| O=C(/C=C/c1ccc(O)c(O)c1)OCCc1ccccc1 [compound 1, CAPE] | 130 |

— publication PMC3276500, “Caffeic Acid Phenethyl Ester and Its Amide Analogue Are Potent Inhibitors of Leukotriene Biosynthesis in Human Polymorphonuclear Leukocytes” (PLoS ONE, 2012)
